Read-outs that look alike come from different tables or passages of the source.
Columns and labels:
[1] = test system: MCF7 (breast adenocarcinoma); assay: MTS assay, inhibition of cell proliferation, MCF7; assay type: cell-based; settings: Homo sapiens, read-out: Inhibition of cell proliferation (IC50)
Source text: (§1) The medium was changed every 2-3 days.

[2] = test system: Resistant MCF7 (MCF7R) cells; assay: MTS assay, inhibition of cell proliferation, MCF7R; assay type: cell-based; settings: Homo sapiens, 72 h
Source text: as §1

[3] = test system: HCT15 (colon adenocarcinoma); assay: MTS assay, inhibition of cell proliferation, HCT15; assay type: cell-based; settings: Homo sapiens, read-out: Inhibition of cell proliferation (IC50)
Source text: as §1

HepG2 (hepatocarcinoma) = assay: MTS assay, inhibition of cell proliferation, HepG2; assay type: cell-based; settings: Homo sapiens, read-out: Inhibition of cell proliferation (IC50)
Description: Experiments were performed in duplicate (n=3).

[4] = test system: KB (epidermoid carcinoma); assay: MTS assay, inhibition of cell proliferation, KB; settings: Homo sapiens
Description: The human cell lines KB (epidermoid carcinoma) and HepG2 (hepatocarcinoma) were obtained from ECACC (Salisbury, UK) and grown in D-MEM medium supplemented with 10% fetal calf serum, in the presence of penicilline, streptomycine and fungizone in 75 cm^2 flask under 5% CO2.
(§4) Cells were plated in 96-well tissue culture plates in 200 μl medium and cultured during 24 h before to be treated with compounds dissolved in DMSO (compound concentrations at a range of 0.5 nM to 10 μM) using a Biomek 2000 or 3000 (Beckman). Controls received the same volume of DMSO (1% final volume). After a 72 h exposure, MTS reagent (Promega) was added and incubated for 3 h at 37° C. The absorbance was then monitored at 490 nm and results were expressed as the value [1-(OD490 treated/OD490 control)×100] corresponding to the percentage of inhibition of cell proliferation.

[5] = test system: HL60 (promyeocytic leukaemia); assay: MTS assay, inhibition of cell proliferation, HL60; settings: Homo sapiens
Description: (§5) The human cell lines HL60 (promyeocytic leukaemia), MDA435 (breast ductal carcinoma; ATCC reference HBT129) and MDA231 (breast adenocarcinoma; ATCC reference HBT26) were obtained from ATCC. […] SK-OV3 cells (or OV3, ATCC reference HTB77) were kindly provided by NCI (Frederick, Md.).
(§6) The cell lines HCT116, HCT15, MCF7, MDA435, MDA231, PC3, OV3, HL60R and HL60 were grown in RPMI medium, in particular supplemented with 10% fetal calf serum, in the presence of penicillin, streptomycin and fungizone in 75 cm^2 flask under 5% CO2. […] The medium was changed every 2-3 days.
as §4

[6] = test system: HCT116 (colon adenocarcinoma); assay: MTS assay, inhibition of cell proliferation, HCT116; settings: Homo sapiens
Description: (§7) The human cell lines HCT116 (colon adenocarcinoma), PC3 (prostate adenocarcinoma) and HCT15 (colon adenocarcinoma) were obtained from ECACC (Wiltshire, UK).
(§8) The cell lines HCT116, HCT15, MCF7, MDA435, MDA231, PC3, OV3, HL60R and HL60 were grown in RPMI medium, in particular supplemented with 10% fetal calf serum, in the presence of penicillin, streptomycin and fungizone in 75 cm^2 flask under 5% CO2.
as §4

H9c2 cardiomyocytes [7] = settings: H9c2
Description: as §1
(§2) H9c2 cells were plated for 24 h in 100 mm Petri dishes at 0,7×10^4 cells/cm^2. Next, the cells were washed and cultured for 12 h in glucose-free medium (Gibco, DMEM w-L-glutamine, w/o D-glucose, sodium pyruvate) supplemented with only 1% fetal calf serum. […] Cells were washed, and subsequently FACS analyses were performed.
(§3) Apoptosis was analysed by fluorescence-activated cell sorting analysis (FACS-Calibur, Becton-Dickinson Biosciences). 0,5×10^6 cells were harvested, washed with Annexin Binding Buffer (0,01 M HEPES, 0,14 M NaCl, 2,5 mM CaCl2) and labeled with annexin V (dilution 1:50) and propidium iodide (6,7 μg/ml). All assays were performed at least in triplicate, and the results were analyzed by BD Cell Quest Pro software (Becton-Dickinson Biosciences, Le Pont De Claix, France).

mice = assay: In vivo cardioprotection against doxorubicin in mice
Description: Administration of FL3 (0.1 mg/kg i.p., 2×/day for 4 days) protected mice from the cardiotoxicity induced by doxorubicine (20 mg/kg i.p.): they observed a 70% survival rate for the mice that received FL3. The survival rate for the mouse who received the vehicle was only 30% (see Table 3).

H9c2 cardiomyocytes [8] = test system: H9c2 cardiomyocytes
Description: as §2, §3

SK-OV3 cells (OV3) = assay: MTS assay, cytotoxicity, OV3; settings: Homo sapiens, SK-OV-3, read-out: Cytotoxicity (IC50)
Description: as §5, §6, §4

[9] = test system: PC3 (prostate adenocarcinoma); assay: MTS assay, cytotoxicity, PC3; settings: Homo sapiens, read-out: Cytotoxicity (IC50)
Description: as §7, §8, §4

[10] = test system: HL60R (resistant HL60 cells); assay: MTS assay, cytotoxicity, HL60R; settings: Homo sapiens, read-out: Cytotoxicity (IC50)
Description: as §8, §4

[11] = test system: MDA435 (breast ductal carcinoma); assay: MTS assay, cytotoxicity, MDA435; settings: Homo sapiens, MDA435, read-out: Cytotoxicity (IC50)
Description: as §5, §6, §4

[12] = test system: MDA231 (breast adenocarcinoma); assay: MTS assay, cytotoxicity, MDA231; settings: Homo sapiens, MDA-MB-231, read-out: Cytotoxicity (IC50)
Description: as §5, §6, §4

[13] = cumulative dose of doxorubicin 700 mg/m^2; cited from earlier work
[14] = MTS, Table 1, read-out: Inhibition of cell proliferation (IC50)
[15] = HCT-15, HCT15, MTS, 72 h, Table 1
[16] = 72 h, read-out: Inhibition of cell proliferation (IC50)
[17] = HL-60, 72 h, read-out: Inhibition of cell proliferation (IC50)
[18] = HCT-116, 72 h, read-out: Inhibition of cell proliferation (IC50)
[19] = HL-60, read-out: Cytotoxicity (IC50)

Compound	IC50 ([1]; MCF7, MTS, 72 h, Table 1) [nM]	IC50 [2, 14] [nM]	IC50 [3, 15] [nM]	IC50 (HepG2 (hepatocarcinoma); HepG2, MTS, 72 h, Table 1) [nM]	IC50 [4, 16] [nM]	IC50 [5, 17] [nM]	IC50 [6, 18] [nM]	IC50 (SK-OV3 cells (OV3)) [nM]	IC50 [9] [nM]	IC50 [11] [nM]	IC50 [12] [nM]	IC50 [5, 19] [nM]	further results
COc1ccc([C@@]23Oc4cc(OC)cc(OC)c4[C@]2(O)[C@H](O)C[C@H]3c2ccccc2)cc1 (racemic) [FL1, rocaglaol]	4	4	6	70	2	3	6	–	–	–	–	–	–
COc1cc(OC)c2c(c1)O[C@@]1(c3ccc(Br)cc3)[C@H](c3ccccc3)C[C@@H](O)[C@@]21O (racemic) [FL3, bromo-demethoxy-rocaglaol]	–	–	–	–	< 1	< 1	< 1	8.5	17	8.7	3.8	5.5	IC50 ([1]; MCF7, 72 h): 1 nM; IC50 ([2]; read-out: Inhibition of cell proliferation (IC50)): < 1 nM; IC50 ([3]; HCT-15, 72 h): 1 nM; IC50 (HepG2 (hepatocarcinoma); HepG2, 72 h): 4 nM; Diminution of the apoptosis induced by doxorubicin (H9c2 cardiomyocytes [7]; 1 nM FL3, 1 μM doxorubicin): 70%; Alleviation of the apoptosis induced by doxorubicin (H9c2 cardiomyocytes [7]; 50 nM FL3, 20 times superior concentration of doxorubicin): 61%; Concentration of maximum inhibition of doxorubicin-induced apoptosis (H9c2 cardiomyocytes [7]; FIG. 8B): 1 nM; Survival rate (mice; Doxorubicin (1 x, 20 mg/kg i.p.) + FL3 (8 x, 0.1 mg/kg i.p.)): 70%; Survival rate (mice; FL3 alone (8 x, 0.1 mg/kg i.p.)): 100%; Effect on KRIBB3-induced cytotoxicity (H9c2 cardiomyocytes [8]; co-treatment FL3 100 nM with KRIBB3 1 μM): significantly alleviated; Effect on KRIBB3 worsening of doxorubicin cytotoxicity (H9c2 cardiomyocytes [8]; doxorubicin, KRIBB3 and FL3 all together): reversed; IC50 [10]: 4.5 nM; IC50 ([4]; read-out: Cytotoxicity (IC50)): 15 nM; IC50 ([6]; HCT-116, read-out: Cytotoxicity (IC50)): 7.6 nM
COc1cccc2c1C(=O)c1c(O)c3c(c(O)c1C2=O)C[C@@](O)(C(=O)CO)C[C@@H]3O[C@H]1C[C@H](N)[C@H](O)[C@H](C)O1 [Doxorubicin, doxorubicin, reference compound]	12	58	81	240	1	13	6	41	186	3.5	0.047	30	Apoptosis induced (total apoptotic cells) (H9c2 cardiomyocytes [7]; 1 μM doxorubicin for 14 h): 32%; Survival rate (mice; Doxorubicin alone (1 x, 20 mg/kg i.p.)): 30%; Risk of developing congestive heart failure [13]: 48%
COc1ccc([C@@H]2C[C@@H](O)[C@@]3(O)c4c(OC)cc(OC)cc4O[C@@]23c2ccccc2)cc1 [FL4]	> 10000	> 10000	> 10000	> 10000	> 10000	> 10000	> 10000	–	–	–	–	–	–
CCc1cc(-c2oncc2-c2ccc(OC)cc2)c(O)cc1OC [KRIBB3, reference compound]	–	–	–	–	–	–	–	–	–	–	–	–	Cytotoxicity of KRIBB3 on cardiomyocytes (H9c2 cardiomyocytes [8]; KRIBB3 1 μM, 1 h): induced a cytotoxicity

Source: patent publication US20120101153A1, “ROCAGLAOL DERIVATIVES AS CARDIOPROTECTANT AGENTS AND AS ANTINEOPLASTIC AGENTS” (Universite De Strasbourg, priority 2008, published 2012)
